Assay results published in patent US20110059526A1, “REPROGRAMMING A CELL BY INDUCING A PLURIPOTENT GENE THROUGH USE OF AN HDAC MODULATOR” (NUPOTENTIAL, INC., priority 2008, published 2011).
Where a name gives a salt, the structure may show the parent alone.

What was measured:
[1] = tested on: Oct-4 gene expression, BJF cells; assay: Small molecules, Oct-4 gene expression by qRT-PCR (Table III), BJF; assay type: cell-based, human
Description: (§1) Cell culture. Human dermal fibroblasts were purchased from Cell Applications (San Diego, Calif.), and were maintained at 37° C. in 95% humidity and 5% CO2 in Fibroblast growth medium (Cell Applications, San Diego, Calif.).
(§2) Quantitative RT-PCR. Expression of Oct-4 was determined by real-time RT-PCR. Briefly, total RNA was prepared from cultures using Trizol Reagent (Life Technologies, Gaithersburg, Md.) and RNeasy Mini kit (Qiagen; Valencia, Calif.) with DNase I digestion according to manufacturer's protocol. Total RNA (1 μg) from each sample was subjected to oligo(dT)-primed reverse transcription (Invitrogen; Carlsbad, Calif.). Real-time PCR reactions will be performed with PCR master mix on a 7300 real-time PCR system (Applied Biosystems; Foster City, Calif.). For each sample, 1 μl of diluted cDNA (1:10) will be added as template in PCR reactions. The expression level of Cot-4 was normalized to glyceraldehyde 3-phosphate-dehydrogenase (GAPD).
Table III provides the effects of small molecule inhibitors on Oct-4 gene expression in human somatic cells. mRNA levels were determined by real time qRT-PCR and normalized with GAPDH. The abbreviations are as follows: HDACi (histone deacetylase inhibitor DNMTi (DNA methyltransferase inhibitor); SIRTi (sirtuin, Class III HDAC inhibitor); LdeMi (lysine demethylase inhibitor); SIRT1a (sirtuin 1 activator); TSAi (trichostatin A inhibitor); HDMi/LSD1i (histone demethylase inhibitor/Lysine demethylase 1 inhibitor).

[2] = tested on: Oct-4 gene expression, adult human dermal fibroblasts (HDFa); assay: Small molecules, Oct-4 gene expression by qRT-PCR (Table III), HDFa; assay type: cell-based
Description: as §1, §2
The abbreviations are as follows: HDACi (histone deacetylase inhibitor DNMTi (DNA methyltransferase inhibitor); SIRTi (sirtuin, Class III HDAC inhibitor); LdeMi (lysine demethylase inhibitor); SIRT1a (sirtuin 1 activator); TSAi (trichostatin A inhibitor); HDMi/LSD1i (histone demethylase inhibitor/Lysine demethylase 1 inhibitor).

[3] = tested on: Oct-4 protein, fetal human dermal fibroblasts (HDFf); assay: Immunohistochemistry of Oct-4 protein in shRNA-infected cells; assay type: cell-based; details: versus uninfected control
Description: Cell culture. Fetal human dermal fibroblasts were purchased from Cell Applications (San Diego, Calif.), and were maintained at 37° C. in 95% humidity and 5% CO2 in Fibroblast growth medium (Cell Applications, San Diego, Calif.).
Lentiviral Infection. Fetal human dermal fibroblasts were infected with one of the following compositions: (1) shRNA lentivirus directed to DNMT1; (2) shRNA lentivirus directed toward HDAC7; (3) shRNA lentivirus directed toward DNMT1 and HDAC7; and (4) shRNA lentivirus directed toward HDAC7a and HDAC11. The shRNA construct was obtained from Dharmacon. The shRNA construct directed toward HDAC7a had the following sequence:
(§3) The human dermal fibroblasts were infected with the shRNA following the manufacturer's instructions. HDF were cultured with an without puromycin selection and hES culture conditions (mTeSR Medium, Stem Cell Technology, Vancouver, BC, Canada) on matrigel (BD Biosciences, San Jose Calif.).
Immunohistochemistry. For immunohistochemistry, target shRNA-infected and control cells were grown on chambered slides (LabTek, Napersville, Ill.). Cells were then be fixed with 4% paraformaldehyde, and incubated with a specific antibody directed against pluripotency marker Oct3/4 (Abeam, Cambridge, Mass.) following the manufacturer's protocol. Staining of Oct3/4 was visualized as a red color. […]

[4] = tested on: Sox-2 protein, fetal human dermal fibroblasts (HDFf); assay: Immunohistochemistry of Sox-2 protein in shRNA-infected cells; assay type: cell-based; details: versus uninfected control
[5] = tested on: Oct-4, Nanog, Sox-2 mRNA, human dermal fibroblasts (HDFa, HDFn, HDFf); assay: HDAC7 or HDAC11 shRNA lentiviral infection, RT-PCR of Oct-4, Nanog, Sox-2 mRNA; assay type: cell-based
From the text: (§4) Human dermal fibroblasts (HDFa, HDFn, and HDFf) were infected with shRNA lentivirus to interfere with HDAC7. In a separate set of experiments, human dermal fibroblasts (HDFa, HDFn, and HDFf) were infected with shRNA lentivirus to interfere with HDAC11. RNA was isolated from HDFs (including puromycin selection) and applied to RT-PCR to analyze expression of target genes, e.g., Oct-4, Nanog, Sox2, various HDACs and various SIRT genes. The shRNA construct included puromycin (antibiotic) resistance as a way to select cells that have been successfully transfected with the shRNA. After transfection, puromycin was added to the culture and cells that were not resistant (therefore not transfected) died, thereby leaving only transfected cells remaining in the culture.
as §1
(§5) Lentiviral Infection. Human dermal fibroblasts were infected with a shRNA construct. The shRNA construct was obtained from Dharmacon. The shRNA construct directed toward directed toward HDAC7a had the following sequence:
as §3, with “Calif.). In these sets of experiments, cells were infected with a shRNA construct directed toward either HDAC7, or HDAC11.” for “Calif.).”
as §2, with “Oct-3/4 and Nanog” for “Oct-4”, “DNase” for “DNase I”, “Oct-3/4 and Nanog” for “Cot-4”

[6] = tested on: HDAC genes and SIRT genes mRNA, human dermal fibroblasts; assay: HDAC7 shRNA lentiviral infection, RT-PCR of HDAC and SIRT genes (FIG. 7); assay type: cell-based
From the text: as §4, §1, §5
The human dermal fibroblasts were infected with the shRNA following the manufacturer's instructions. […]
Quantitative RT-PCR. Expression of Oct-3/4 and Nanog was determined by real-time RT-PCR. […]

[7] = tested on: HDAC7a and HDAC11 expression, human dermal fibroblasts (HDFa, HDFn, HDFf); assay: HDAC7a shRNA effect on expression of HDAC7a and HDAC11, RT-PCR; assay type: cell-based
Description: as §1
Lentiviral Infection. Human dermal fibroblasts were infected with a shRNA construct. The shRNA construct was obtained from Dharmacon. The shRNA construct directed toward HDAC7a had the following sequence:
as §3
as §2, with “HDAC7a and HDAC11” for “Oct-4”, “The expression level of Cot-4 was normalized to glyceraldehyde 3-phosphate-dehydrogenase (GAPD).” left out

[8] = tested on: Oct-4 gene expression, HLFa; assay: Small molecules, Oct-4 gene expression by qRT-PCR (Table III), HLFa; assay type: cell-based, human; details: dose 500 uM, Rx Time 5

## Oc1ccc(C=Cc2cc(O)cc(O)c2)cc1 [Resveratrol]
[1]; dose .5 mM, Rx Time 4
  Oct4 FC: <2

## NNc1nncc2ccccc12 [Hydralazine HCL]
[2]; dose 500 uM, Rx Time 2
  Oct4 FC: <2

## O=C(c1ccc(Cl)cc1Cl)n1nnc2ccccc21 [ITSA]
[2]; dose .05 mM, Rx Time 4
  Oct4 FC: <2

## O=C(O[C@@H]1Cc2c(O)cc(O)cc2O[C@@H]1c1cc(O)c(O)c(O)c1)c1cc(O)c(O)c(O)c1 [EGCG]
[1]; dose 1 uM, Rx Time 4
  Oct4 FC: <2

## O=c1ncccn1[C@@H]1O[C@H](CO)[C@@H](O)[C@H]1O [Zebularine]
[1]; dose .05 mM, Rx Time 6
  Oct4 FC: <2

## N[C@@H]1C[C@H]1c1ccccc1 [Tranylcypromine]
[2]; dose 2.5 mM, Rx Time 4
  Oct4 FC: 2.7

## NC(=O)c1cccnc1 [Nicotinamide]
[2]; dose .028 mM, Rx Time 4
  Oct4 FC: 2.3

## O=C1CCc2c(ccc3ccccc23)O1 [Splitomycin]
[2]; dose .5 mM, Rx Time 4
  Oct4 FC: 2

## CC(NC(=O)c1ccccc1/N=C/c1c(O)ccc2ccccc12)c1ccccc1 (centres unmarked) [Sirtinol]
[1]; dose .05 mM, Rx Time 7
  Oct4 FC: <2

## Depudecin
[2]; dose 50 uM, Rx Time 4
  Oct4 FC: <2

## COCCCn1c(N)c(C(=O)NC2CCCC2)c2nc3ccccc3nc21 [SIRT1 Activator 3]
[2]; dose 500 uM, Rx Time 4
  Oct4 FC: 2

## Na Phenylbutyrate
[2]; dose 2.5 mM, Rx Time 4
  Oct4 FC: 2.5

## DNMT1 shRNA: shRNA construct directed toward DNMT1, SEQ ID NO. 4: GTCTACCAGATCTTCGATA (listed as Homo Sapiens)
[3]
  Oct-4 protein expression: clearly increased
[4]
  Sox-2 protein expression: only a modest amount

## Nc1ccccc1NC(=O)CCCCCCC(=O)Nc1ccccc1 [CAY 10433]
[2]; dose 50 uM, Rx Time 4
  Oct4 FC: <2

## NC(=O)C1CCCc2c1[nH]c1ccc(Cl)cc21 (centres unmarked) [EX-527]
[2]; dose 50 uM, Rx Time 4
  Oct4 FC: 2

## Cn1cc(C2=C(c3cn(CCCSC(=N)N)c4ccccc34)C(=O)NC2=O)c2ccccc21 [RO-31-8220]
[1]; dose 2.5 mM, Rx Time 4
  Oct4 FC: <2

## CCN(CC)CCOC(=O)c1ccc(N)cc1 [Procaine HCL]
[2]; dose 500 uM, Rx Time 8
  Oct4 FC: <2

## O=C(O)CCCCC1CCSS1 (stereo not drawn) [ALA, Alpha-lipoic acid]
[2]; dose 50 uM, Rx Time 4
  Oct4 FC: 3.5

## HDAC7 shRNA: shRNA lentiviral construct from Dharmacon directed toward HDAC7a, SEQ ID NO. 1: GCTTTCAGGATAGTCGTGA (shRNA lentiviral construct)
[3]
  Oct-4 protein expression: minimal detection
[5]; HDFa and HDFn, presence and absence of puromycin, compared to Nanog
  level of mRNA for the gene Oct-4: more modest increase
[5]; HDFa and HDFn, with and without puromycin selection
  expression of Nanog increased over time: at least six-fold
[5]; HDFa, HDFn and HDFf, presence and absence of puromycin
  level of mRNA for the gene Nanog: increased
[5]; HDFf, compared with HDFa and HDFn
  level of mRNA for the gene Nanog: not as robustly
[5]; fetal human dermal fibroblasts (HDFf)
  level of mRNA for the Sox-2 gene: No induction
[6]; around three days after lentiviral infection
  level of HDAC7 mRNA reduced: about 50 % of basal level
[6]; three days after HDAC7 shRNA infection
  expression of HDAC 9, HDAC5 and HDAC11 mRNA: inducted
[4]
  Sox-2 protein expression: minimal protein expression
[7]
  expression of HDAC7a: decreased
[7]; presence and absence of puromycin
  expression of HDAC11: increased

## O=C(O)C(Cc1c[nH]c2ccccc12)N1C(=O)c2ccccc2C1=O (centres unmarked) [RG108]
[8]
  Oct4 FC: <2

## NC1CC1c1ccccc1 (centres unmarked) [2-PCPA]
[1]; dose 1 mM, Rx Time 8
  Oct4 FC: <2

## Valproxam
[2]; dose .5 mM, Rx Time 4
  Oct4 FC: <2

## O=C(NCCSSCCNC(=O)/C(Cc1ccc(O)c(Br)c1)=N/O)/C(Cc1ccc(O)c(Br)c1)=N/O [Psammaplin-A]
[1]; dose 1.5 mM, Rx Time 7
  Oct4 FC: 2.2

## O=C(O)CCCC[C@@H]1SC[C@@H]2NC(=O)N[C@@H]21 [Biotin]
[2]; dose 500 uM, Rx Time 4
  Oct4 FC: <2
